US20240425492A1, “POLYMORPHS AS ERBB INHIBITORS” (Black Diamond Therapeutics, Inc., priority 2021, published 2024)
≈ marks a conversion by molar mass, not a printed value. Read-outs that look alike come from different tables or passages of the source.

How the values were obtained:
[1] = Hygroscopicity by DVS at 25° C.; type: physicochemical; conditions: for Desorp. (%) / Sorp. (%): DVS 25° C.
Procedure: Dynamic Vapor Sorption (DVS): DVS analysis was performed using Intrinsic. Analysis was performed using parameters as set forth below.
The hygroscopicity for Form C and Form F was examined. See, e.g., Table E.

[2] = Variable relative humidity XRPD experiments for Form F; type: physicochemical
Source text: Protocol 9: Variable relative humidity experiment. Form F was investigated by variable humidity XRPD experiments. […] Form L reverted to Form F in >10% RH. […] See Example 8 for more details.
Form F was investigated by variable humidity XRPD experiments.

physchem = conditions: 37 °C, thermodynamic from solid
Procedure: (§1) 2.01 mg of the free base Form C (equal to 2 mg free base after correction for water content) was weighed into 2 mL vial. 2.09 mg of the free base Form F (equal to 2 mg free base after correction for water content) was weighed into a 2 mL vial. I mL of aqueous media was added, respectively. These suspensions were stirred at 37° C. at a rate of 400 rpm. These suspensions were taken out after 2 h and 24 h, and then centrifuged at 14,000 rpm for 5 minutes. The supernatants were analyzed by HPLC. The pH of the supernatants were tested.

[3] = Bulk stability under accelerated storage conditions (XRPD and HPLC); conditions: Solid state
Source text: Solids obtained after bulk stability study were characterized by XRPD and HPLC.

[4] = Solubility study in aqueous media at 37° C. (HPLC of supernatants, pH)
Procedure: as §1

[5] = 25° C./92.5% RH in an open vial, 2 weeks
[6] = 25° C./92.5% RH in an open vial, 4 weeks
[7] = 40° C./75% RH in an open vial, 2 weeks
[8] = 40° C./75% RH in an open vial, 4 week
[9] = 60° C., tight container, 2 weeks
[10] = 60° C., tight container, 4 weeks
[11] = pH 6.8 (50 mM) phosphate buffer, 37° C.

CN1C[C@H]2C[C@@]2(C#Cc2cc3ncnc(Nc4cccc(Cl)c4F)c3cc2NC(=O)/C=C/CN2CCOCC2)C1 [Form F]
DVS water uptake from 40% RH to 70% RH ([1]; 25° C., dm/dt = 0.002%): 1.1% water uptake from 40% RH to 70% RH | DVS water uptake from 40% RH to 95% RH ([1]; 25° C., dm/dt = 0.002%): 10.2% water uptake from 40% RH to 95% RH | Desorp. (%) ([1]; Relative Humidity 0%, first Desorp.): 0.0% | Sorp. (%) ([1]; Relative Humidity 0%, second Sorp.): 0.0% | Desorp. (%) ([1]; Relative Humidity 10%, first Desorp.): 1.4% | Sorp. (%) ([1]; Relative Humidity 10%, second Sorp.): 1.3% | Desorp. (%) ([1]; Relative Humidity 20%, first Desorp.): 1.9% | Sorp. (%) ([1]; Relative Humidity 20%, second Sorp.): 1.7% | Desorp. (%) ([1]; Relative Humidity 30%, first Desorp.): 3.6% | Sorp. (%) ([1]; Relative Humidity 30%, second Sorp.): 2.1% | Desorp. (%) ([1]; Relative Humidity 40%, first Desorp.): 6.3% | Sorp. (%) ([1]; Relative Humidity 40%, first Sorp.): 2.5% | Desorp. (%) ([1]; Relative Humidity 40%, second Desorp.): 6.4% | Sorp. (%) ([1]; Relative Humidity 40%, second Sorp.): 2.8% | Desorp. (%) ([1]; Relative Humidity 50%, first Desorp.): 8.0% | Sorp. (%) ([1]; Relative Humidity 50%, first Sorp.): 2.8% | Desorp. (%) ([1]; Relative Humidity 50%, second Desorp.): 7.9% | Sorp. (%) ([1]; Relative Humidity 50%, second Sorp.): 3.2% | Desorp. (%) ([1]; Relative Humidity 60%, first Desorp.): 9.4% | Sorp. (%) ([1]; Relative Humidity 60%, first Sorp.): 3.2% | Desorp. (%) ([1]; Relative Humidity 60%, second Desorp.): 9.3% | Sorp. (%) ([1]; Relative Humidity 60%, second Sorp.): 3.7% | Desorp. (%) ([1]; Relative Humidity 70%, first Desorp.): 10.2% | Sorp. (%) ([1]; Relative Humidity 70%, first Sorp.): 3.6% | Desorp. (%) ([1]; Relative Humidity 70%, second Desorp.): 10.0% | Sorp. (%) ([1]; Relative Humidity 70%, second Sorp.): 4.2% | Desorp. (%) ([1]; Relative Humidity 80%, first Desorp.): 11.0% | Sorp. (%) ([1]; Relative Humidity 80%, first Sorp.): 10.4% | Desorp. (%) ([1]; Relative Humidity 80%, second Desorp.): 10.8% | Sorp. (%) ([1]; Relative Humidity 80%, second Sorp.): 10.4% | Desorp. (%) ([1]; Relative Humidity 90%, first Desorp.): 11.8% | Sorp. (%) ([1]; Relative Humidity 90%, first Sorp.): 11.6% | Desorp. (%) ([1]; Relative Humidity 90%, second Desorp.): 11.6% | Sorp. (%) ([1]; Relative Humidity 90%, second Sorp.): 11.4% | Desorp. (%) ([1]; Relative Humidity 95%, first Desorp.): 12.9% | Sorp. (%) ([1]; Relative Humidity 95%, first Sorp.): 12.7% | Desorp. (%) ([1]; Relative Humidity 95%, second Desorp.): 12.2% | Sorp. (%) ([1]; Relative Humidity 95%, second Sorp.): 12.2% | XRPD after DVS test ([1]; DVS at 25° C.): No form change | form conversion in variable humidity XRPD ([2]; 0% RH): converted to a new crystalline form, assigned as Form L | XRPD (form observed) ([2]; 0% RH (12 h), step 8 of humidity sequence): Form L (Only stable in low humidity) | XRPD (form observed) ([2]; 0% RH (24 h), step 9 of humidity sequence): Form L (Only stable in low humidity) | XRPD (form observed) ([2]; 10% RH, step 7 of humidity sequence): Form F | XRPD (form observed) ([2]; 10% RH, step 10 of humidity sequence): Form F | XRPD (form observed) ([2]; 40% RH, step 1 of humidity sequence): Form F | XRPD (form observed) ([2]; 40% RH, step 6 of humidity sequence): Form F | XRPD (form observed) ([2]; 40% RH, step 11 of humidity sequence): Form F | XRPD (form observed) ([2]; 70% RH, step 2 of humidity sequence): Form F | XRPD (form observed) ([2]; 70% RH, step 5 of humidity sequence): Form F | XRPD (form observed) ([2]; 90% RH (3 h), step 3 of humidity sequence): Form F | XRPD (form observed) ([2]; 90% RH (6 h), step 4 of humidity sequence): Form F | 2 h Solubility (pH 5): Degradation | 24 h Solubility (pH 5): Degradation | 2 h Solubility (pH 6.5): Degradation | 24 h Solubility (pH 6.5): Degradation | solubility (physchem; pH 1, simulated gastric fluid): > 2000 µg/mL | solubility at 2 h (physchem; pH 1, simulated gastric fluid): > 2000 µg/mL | solubility at 24 h (physchem; pH 1, simulated gastric fluid): > 2000 µg/mL | solubility (physchem; pH 2, simulated gastric fluid): > 2000 µg/mL | solubility at 2 h (physchem; pH 2, simulated gastric fluid): > 2000 µg/mL | solubility at 24 h (physchem; pH 2, simulated gastric fluid): > 2000 µg/mL | solubility (physchem; pH 4.5, aqueous buffer): > 2000 µg/mL | solubility at 2 h (physchem; pH 4.5, aqueous buffer): > 2000 µg/mL | solubility at 24 h (physchem; pH 4.5, aqueous buffer): > 2000 µg/mL | solubility (physchem; pH 6.8, aqueous buffer): ~20 µg/mL (≈ 35.6 µM) | solubility at 2 h (physchem; pH 6.8, aqueous buffer): 20.7 µg/mL (≈ 36.9 µM) | solubility at 24 h (physchem; pH 6.8, aqueous buffer): 19.8 µg/mL (≈ 35.3 µM) | solubility (physchem; water): < 10 µg/mL | solubility at 2 h (physchem; water): 7 µg/mL (≈ 12.5 µM) | solubility at 24 h (physchem; water): 7.5 µg/mL (≈ 13.4 µM) | Bulk (XRPD) [3, 5]: No form change | Purity, Bulk (HPLC) [3, 5]: 95.5% | Bulk (XRPD) [3, 6]: No form change | Purity, Bulk (HPLC) [3, 6]: 94.1% | Bulk (XRPD) [3, 7]: No form change | Purity, Bulk (HPLC) [3, 7]: 94.3% | Bulk (XRPD) [3, 8]: No form change | Purity, Bulk (HPLC) [3, 8]: 91.6% | Bulk (XRPD) [3, 9]: No form change | Purity, Bulk (HPLC) [3, 9]: 90.1% | Bulk (XRPD) [3, 10]: No form change | Purity, Bulk (HPLC) [3, 10]: 82.6% | 24 h (pH) of supernatant ([4]; SGF, pH 2.0, 37° C.): pH 3.5 | XRPD of residual solid ([4]; Water, 37° C.): Form F | 24 h (pH) of supernatant ([4]; Water, 37° C.): pH 7.0 | 24 h (pH) of supernatant ([4]; pH 1.0 (0.1N HCl), 37° C.): pH 0.9 | 24 h (pH) of supernatant ([4]; pH 4.5 (50 mM) acetate buffer, 37° C.): pH 4.6 | XRPD of residual solid [4, 11]: Form F | 24 h (pH) of supernatant [4, 11]: pH 6.7
